Results published in article PMC9186373, “Design, synthesis, and biological evaluation of novel carbazole derivatives as potent DNMT1 inhibitors with reasonable PK properties” (Journal of Enzyme Inhibition and Medicinal Chemistry, 2022).
Like-named read-outs stand apart in the source and are kept apart here.

How the values were obtained:
EZH2 = experiment: Methylation inhibition assay (AlphaLisa), EZH2; format: biochemical; settings: 50 µM; for inhibitory activity against EZH2: Figure 3; for Relative selectivity index of DNMT1 vs EZH2: 1 - selected enzyme inhibition/DNMT1 inhibition
Method: (§1) All the compounds were first screened using an ELISA EpiQuik DNA methyltransferase (DNMT) activity/inhibitor assay kit (Epigentek). To measure the effects of the compounds on human DNMT1 activity, 200 nM purified DNMT1 was incubated with 50 µM and 100 µM of the different compounds and S-adenosylmethionine in the DNMT assay buffer in the assay plate at 37 °C for 2 h[36]. Next, every sample was incubated with the capture and detection antibody, followed by incubation with developer solution for 10 min at room temperature. The absorbance was measured at 450 nm using a POLARstar Omega microplate reader (BMG). S-Adenosylhomocysteine (AdoHcy) was used as a positive control. Methylation inhibition assays for EZH2, LSD, and G9a were performed in modified Tris, pH 9.0, buffer using AlphaLisa technology. An amount of 10 µL of the reaction system contained a corresponding concentration of SAM (Sigma) (EZH2 50 µM, LSD 50 µM, and G9a 50 µM), which was the Km value in each enzymatic reaction, plus 100 nM biotinylated peptide H3 (1–21) (synthesis by GLChina) and the relevant enzyme concentration (0.03 nM EZH2, 0.03 nM LSD, and 0.03 nM G9a). The proteins were preincubated with various compound concentrations for 15 min at room temperature before the substrate and SAM were added. After 60 min of incubation at room temperature, acceptor and donor AlphaLisa beads were added according to the manufacturer’s recommendations. The signals were read in Alpha mode with an EnSpire multimode plate reader (PerkinElmer). IC50 values were derived by fitting the data for the inhibition percentage to a dose-response curve by non-linear regression in GraphPad Prism 5.0[20].
(§2) In addition to DNMT1, there are many other methyltransferases that can bind with S-adenosyl-L-methionine (SAM) to facilitate transmethylation reactions[24]^,[25]. To investigate the selectivity of these potent compounds for DNMT1, we then evaluated the inhibitory activities against DNMT1 and other important methyltransferases at the concentration of 50 µM, including DNMT3A/3L, DNMT3B/3L, and other SAM-dependent enzymes[1]^,[2]^,[26], such as EZH2[27], LSD1[28], G9a (histone H3 lysine 9 methyltransferase)[29].
(§3) 493 Relative selectivity index
(§4) 494 Relative selectivity index of DNMT1 is calculated by formula: DNMT1-selectivity
(§5) 495 index =1 - selected enzyme inhibition/DNMT1 inhibition. The closer
(§6) 496 that this value is to 1 or even more than 1, the better DNMT1-selectivity the of the
(§7) 498 Table S1. Relative selectivity index of DNMT1
Cpd. […]

LSD1 = experiment: Methylation inhibition assay (AlphaLisa), LSD1; format: biochemical; settings: 1 - selected enzyme inhibition/DNMT1 inhibition; 50 µM
Method: as §1, §2, §3, §4, §5, §6, §7
Cpd. […]

DNMT3A/3L = experiment: Methyltransferase enzymatic selectivity profiling, DNMT3A/3L; format: biochemical; settings: 1 - selected enzyme inhibition/DNMT1 inhibition; 50 µM
Method: as §2
(§8) Here, the selectivity of non-nucleoside DNMT1 inhibitors is somewhat predictable because other methyltransferases mentioned above catalyse different substrates and share very low homology with DNMT1, even in their catalytic domain[30–32]. Subsequently, the screened compounds were evaluated in a dose-dependent assay against HCT116 (human colon cancer cell line) and A549 (human lung carcinoma cell line).
as §3, §4, §5, §6, §7
Cpd. […]

[1] = tested on: A549 (human lung cancer cells); experiment: MTT assay, A549; format: cell-based
Method: The human lung cancer cells (A549) and human colon cancer cells (HCT116) were cultured in an RPMI-1640 medium containing 10% FBS, 100 U/mL streptomycin, and 100 U/mL penicillin at 37 °C in a humidified atmosphere with 5% CO2. All compounds were dissolved in DMSO and stock solutions were stored at −20 °C. Reagents were freshly diluted to the marked concentrations with a culture medium before use. DMSO concentration in experimental conditions never exceeded 0.1% (v/v). All cell lines were provided by the cell laboratory, School of pharmaceutical sciences, Guangzhou Medical University.
Cell viability was detected using an MTT assay kit. Cells were seeded into 96-well plates at a density of ∼1.0 × 10^4/well. 24 h later, sextuplicate wells were treated with media and new compounds at a fixed concentration (50 µM). After 24, 48, and 72 h, the drug-containing medium was replaced by a 100 µL fresh medium with 5 mg/mL MTT solution. After 4 h of incubation, the medium with MTT was removed, and 100 µL of DMSO was added to each well. The plates were gently agitated until the purple formazan crystals were dissolved, and the OD490 was determined using a […] (Olympus BX53, Japan). The data were calculated and plotted as the percent viability compared to the control.

human DNMT1 = experiment: ELISA EpiQuik DNA methyltransferase (DNMT) activity/inhibitor assay; format: biochemical; settings: 200 nM purified DNMT1, EpiQuik kit; for Inh% at 50 μM: 50 μM compound; for Inh% at 100 μM: 100 μM compound
Method in brief: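 Purified human DNMT1 (200 nM) was incubated 2 h at 37 °C with SAM and compound at 50 µM and 100 µM. Methylation was detected by antibody-based ELISA read at 450 nm.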

[2] = tested on: G9a (histone H3 lysine 9 methyltransferase); experiment: Methylation inhibition assay (AlphaLisa), G9a; format: biochemical; settings: 50 µM; for inhibitory activity against G9a: Figure 3; for Relative selectivity index of DNMT1 vs G9a: 1 - selected enzyme inhibition/DNMT1 inhibition
Method: as §1, §2, §3, §4, §5, §6, §7
Cpd. […]

DNMT3B/3L = experiment: Methyltransferase enzymatic selectivity profiling, DNMT3B/3L; format: biochemical; settings: 1 - selected enzyme inhibition/DNMT1 inhibition; 50 µM
Method: as §2, §8, §3, §4, §5, §6, §7
Cpd. […]

DNMT1 = DNMT1 (Homo sapiens, UniProt P26358); experiment: H3-labelled radioactive methylation assay; format: biochemical; settings: H3-labeled radioactive methylation assay; 40 nM DNMT1
Sequence of DNMT1 (P26358 whole entry): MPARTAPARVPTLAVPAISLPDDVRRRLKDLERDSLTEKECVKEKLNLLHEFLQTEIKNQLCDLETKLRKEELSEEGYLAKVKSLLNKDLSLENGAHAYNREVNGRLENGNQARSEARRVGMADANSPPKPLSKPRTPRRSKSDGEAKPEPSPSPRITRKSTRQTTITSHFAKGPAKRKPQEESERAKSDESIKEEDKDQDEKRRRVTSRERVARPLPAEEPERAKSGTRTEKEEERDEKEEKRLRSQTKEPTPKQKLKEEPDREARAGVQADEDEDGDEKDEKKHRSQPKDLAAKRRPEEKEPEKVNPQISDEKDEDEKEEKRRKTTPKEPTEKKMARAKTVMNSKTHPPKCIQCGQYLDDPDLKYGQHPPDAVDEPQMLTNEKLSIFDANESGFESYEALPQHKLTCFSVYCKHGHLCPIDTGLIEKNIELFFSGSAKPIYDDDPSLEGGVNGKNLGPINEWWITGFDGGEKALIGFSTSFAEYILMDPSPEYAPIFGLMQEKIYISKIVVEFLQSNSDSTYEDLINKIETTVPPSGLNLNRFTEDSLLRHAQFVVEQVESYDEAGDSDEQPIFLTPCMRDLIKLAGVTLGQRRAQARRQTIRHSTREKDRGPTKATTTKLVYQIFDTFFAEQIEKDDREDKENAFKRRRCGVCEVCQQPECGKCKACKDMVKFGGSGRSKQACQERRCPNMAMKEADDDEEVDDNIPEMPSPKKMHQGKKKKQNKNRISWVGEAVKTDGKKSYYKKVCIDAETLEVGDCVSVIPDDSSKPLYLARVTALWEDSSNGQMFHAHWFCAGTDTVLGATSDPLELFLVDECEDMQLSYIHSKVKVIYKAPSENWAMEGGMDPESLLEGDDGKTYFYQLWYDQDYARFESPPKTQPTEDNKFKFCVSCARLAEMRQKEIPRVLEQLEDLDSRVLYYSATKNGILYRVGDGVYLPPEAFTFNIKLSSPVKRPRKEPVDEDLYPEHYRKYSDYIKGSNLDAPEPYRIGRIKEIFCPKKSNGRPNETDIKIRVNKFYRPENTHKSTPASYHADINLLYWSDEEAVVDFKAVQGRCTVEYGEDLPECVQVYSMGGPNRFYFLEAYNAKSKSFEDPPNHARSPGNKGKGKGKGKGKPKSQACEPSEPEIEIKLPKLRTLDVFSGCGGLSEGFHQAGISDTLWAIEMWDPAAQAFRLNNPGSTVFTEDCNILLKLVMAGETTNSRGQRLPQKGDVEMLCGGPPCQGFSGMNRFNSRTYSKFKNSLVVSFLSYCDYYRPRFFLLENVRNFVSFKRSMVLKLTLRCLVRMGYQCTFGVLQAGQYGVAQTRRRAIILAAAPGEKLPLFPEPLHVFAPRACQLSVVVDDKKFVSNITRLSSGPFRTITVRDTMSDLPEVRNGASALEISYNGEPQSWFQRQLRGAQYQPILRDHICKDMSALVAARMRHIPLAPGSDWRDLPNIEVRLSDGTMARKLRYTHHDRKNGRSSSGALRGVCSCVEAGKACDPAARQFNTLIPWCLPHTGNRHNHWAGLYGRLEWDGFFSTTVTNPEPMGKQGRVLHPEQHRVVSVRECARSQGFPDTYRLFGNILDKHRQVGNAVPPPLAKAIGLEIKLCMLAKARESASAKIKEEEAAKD
Method in brief: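 DNMT1 (40 nM) was preincubated with a compound range for 15 min at room temperature, then given 0.1 µM ^3H-SAM and 0.25 µg/mL poly(dI-dC)·poly(dI-dC) in 50 mM Tris-HCl pH 8.0, 1 mM DTT, 5% glycerol, 100 µg/mL BSA. After 60 min at 37 °C, filter-bound radioactivity was counted by scintillation. IC50 was taken from a non-linear dose-response fit.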

[3] = 24 h, read-out: Inh % at 50 μM, A549, 24 h
[4] = 48 h, read-out: Inh % at 50 μM, A549, 48 h
[5] = 72 h, read-out: Inh % at 50 μM, A549, 72 h

In the case of `CC(C)NCC(O)COC(Cn1c2ccc(F)cc2c2cc(F)ccc21)Cn1c2ccc(F)cc2c2cc(F)ccc21` (centres unmarked) [WK-22, 1-((1,3-Bis(3,6-difluoro-9H-carbazol-9-yl)propan-2-yl)oxy)-3-(isopropylamino)propan-2-ol], the “inhibitory activity against EZH2” value (EZH2) is reported as “nearly no inhibitory activities”, the “Relative selectivity index of DNMT1 vs EZH2” value (EZH2) is reported as 0.96 and the “Relative selectivity index of DNMT1 vs LSD1” value (LSD1) is reported as 0.02. The “Relative selectivity index of DNMT1 vs DNMT 3A/3L” value (DNMT3A/3L) was 0.04, the inhibition at 50 µM [1, 3] was 64.3% and the inhibition at 50 µM [1, 4] was 98%. The inhibition at 50 µM [1, 5] was 95.7%, the “Inh% at 50 μM” value (human DNMT1) was 99% and the “Inh% at 100 μM” value (human DNMT1) was 100%. The “inhibitory activity against G9a” value [2] was “nearly no inhibitory activities”, the “Relative selectivity index of DNMT1 vs G9a” value [2] was 0.9 and the “Relative selectivity index of DNMT1 vs DNMT 3B/3L” value (DNMT3B/3L) was 0.03. The IC50 (DNMT1) was 4.9 µM.
For `CC(C)NCC(O)COC(Cn1c2ccccc2c2cc(F)ccc21)Cn1c2ccccc2c2cc(F)ccc21` (centres unmarked) [WK-23, 1-((1,3-bis(3-fluoro-9H-carbazol-9-yl)propan-2-yl)oxy)-3-(isopropylamino)propan-2-ol], the “inhibitory activity against EZH2” value (EZH2) was “nearly no inhibitory activities”, the “Relative selectivity index of DNMT1 vs EZH2” value (EZH2) was 0.85 and the “Relative selectivity index of DNMT1 vs LSD1” value (LSD1) was 0.2. For the same compound, the “Relative selectivity index of DNMT1 vs DNMT 3A/3L” value (DNMT3A/3L) was 0.06, the inhibition at 50 µM [1, 3] was 75.9% and the inhibition at 50 µM [1, 4] was 58.1%. For the same compound, the inhibition at 50 µM [1, 5] was 93.6%, the “Inh% at 50 μM” value (human DNMT1) was 99% and the “Inh% at 100 μM” value (human DNMT1) was 100%. The “inhibitory activity against G9a” value [2] was “nearly no inhibitory activities”, the “Relative selectivity index of DNMT1 vs G9a” value [2] was 0.89 and the “Relative selectivity index of DNMT1 vs DNMT 3B/3L” value (DNMT3B/3L) was 0.02. The IC50 (DNMT1) was 5 µM.
